Laboratory results published in patent US5153128A, “Heat-resistant β-galactosyltransferase, its production process and its use” (Suntory Limited, priority 1990, dated 1992).

Biological target: T1, heat-resistant β-galactosyltransferase produced by Saccharopolyspora rectivirgula SAM 1400 (Saccharopolyspora rectivirgula, UniProt Q9ZBD1)
T1 construct: about 140 kDa by gel filtration
Assay: Inhibitors: residual activity of the enzyme in the presence of compounds (Table 3)
Assay type: biochemical
Conditions: enzyme in presence of the compound; compound concentration not given

T1 sequence (Q9ZBD1 entry or part of it, change not shown): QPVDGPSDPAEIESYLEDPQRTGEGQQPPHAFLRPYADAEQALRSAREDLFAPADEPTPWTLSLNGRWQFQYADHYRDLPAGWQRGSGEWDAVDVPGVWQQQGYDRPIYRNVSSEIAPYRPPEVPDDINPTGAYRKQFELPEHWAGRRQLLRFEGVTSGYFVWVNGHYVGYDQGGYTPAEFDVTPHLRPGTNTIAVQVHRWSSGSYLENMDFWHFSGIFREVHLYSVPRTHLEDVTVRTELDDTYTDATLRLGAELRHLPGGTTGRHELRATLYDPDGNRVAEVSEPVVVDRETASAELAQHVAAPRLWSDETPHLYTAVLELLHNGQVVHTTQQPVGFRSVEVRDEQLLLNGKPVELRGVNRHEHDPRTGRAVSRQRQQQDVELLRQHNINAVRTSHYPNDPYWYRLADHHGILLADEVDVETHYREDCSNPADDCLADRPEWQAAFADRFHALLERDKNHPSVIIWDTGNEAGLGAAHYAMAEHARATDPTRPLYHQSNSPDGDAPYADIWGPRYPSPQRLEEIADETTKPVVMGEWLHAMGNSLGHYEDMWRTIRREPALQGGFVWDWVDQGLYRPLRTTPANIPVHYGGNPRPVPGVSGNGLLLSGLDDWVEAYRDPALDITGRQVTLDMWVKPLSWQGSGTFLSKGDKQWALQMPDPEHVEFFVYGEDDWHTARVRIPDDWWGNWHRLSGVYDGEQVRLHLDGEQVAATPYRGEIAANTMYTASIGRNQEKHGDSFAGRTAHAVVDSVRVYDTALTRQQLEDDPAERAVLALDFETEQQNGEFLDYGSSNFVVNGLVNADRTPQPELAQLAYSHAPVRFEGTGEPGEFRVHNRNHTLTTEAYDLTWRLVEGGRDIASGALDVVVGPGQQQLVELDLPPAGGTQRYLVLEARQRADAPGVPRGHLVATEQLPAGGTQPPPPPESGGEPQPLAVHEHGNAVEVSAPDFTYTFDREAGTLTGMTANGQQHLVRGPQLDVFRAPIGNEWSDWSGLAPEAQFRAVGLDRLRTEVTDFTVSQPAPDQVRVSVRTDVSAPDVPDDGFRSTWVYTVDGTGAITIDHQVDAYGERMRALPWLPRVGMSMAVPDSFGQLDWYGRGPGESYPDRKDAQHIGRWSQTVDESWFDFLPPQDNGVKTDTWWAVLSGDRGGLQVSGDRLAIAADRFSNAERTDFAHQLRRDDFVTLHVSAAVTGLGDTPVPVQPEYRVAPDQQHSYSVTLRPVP

SMILES: OCCS [2-Mercaptoethanol]
- Residual activity: 96%
